The values that follow come from ChEMBL document CHEMBL1140306 (J Med Chem, 2005).

One test concerns the target Cholinesterase (Homo sapiens, UniProt P06276). In words: Inhibition of isolated human BuChE.
For test [1], the target named is T1, Acetylcholinesterase (Homo sapiens, UniProt P22303). Description: Inhibition of recombinant human AChE.
Test [2] addresses T1, Acetylcholinesterase. In words: Inhibition of human AChE induced beta-amyloid aggregation in thioflavin T-based fluorometric assay. The format is functional. Also noted: concentration or dose not given beside the values. As to conditions: concentration not given here.
Test [3] addresses Cholinesterases; ACHE & BCHE (Homo sapiens) (UniProt P06276+P22303). Description: Ratio of IC50 for human BuChE and AChE. The format is protein assay.

Chain of Cholinesterase (P06276 whole entry): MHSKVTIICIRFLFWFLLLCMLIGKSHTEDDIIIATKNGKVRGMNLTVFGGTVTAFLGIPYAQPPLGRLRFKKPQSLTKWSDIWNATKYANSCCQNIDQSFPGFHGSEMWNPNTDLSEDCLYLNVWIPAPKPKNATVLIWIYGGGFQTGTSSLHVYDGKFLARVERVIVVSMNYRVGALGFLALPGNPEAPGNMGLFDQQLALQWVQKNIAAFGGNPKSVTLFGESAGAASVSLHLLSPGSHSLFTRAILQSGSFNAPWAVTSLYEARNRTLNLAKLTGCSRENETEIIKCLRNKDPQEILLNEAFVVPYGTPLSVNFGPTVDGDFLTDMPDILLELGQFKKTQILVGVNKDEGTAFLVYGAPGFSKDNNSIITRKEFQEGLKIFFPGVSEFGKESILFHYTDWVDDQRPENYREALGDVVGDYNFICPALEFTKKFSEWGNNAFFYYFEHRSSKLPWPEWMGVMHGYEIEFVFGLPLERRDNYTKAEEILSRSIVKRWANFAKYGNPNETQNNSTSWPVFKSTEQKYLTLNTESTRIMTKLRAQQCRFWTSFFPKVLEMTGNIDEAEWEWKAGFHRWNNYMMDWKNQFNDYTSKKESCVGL
Chain of Cholinesterases; ACHE & BCHE (Homo sapiens) (P06276 whole entry, looked up): as the sequence (P06276 whole entry) above
Chain of Cholinesterases; ACHE & BCHE (Homo sapiens) (P22303 whole entry, looked up): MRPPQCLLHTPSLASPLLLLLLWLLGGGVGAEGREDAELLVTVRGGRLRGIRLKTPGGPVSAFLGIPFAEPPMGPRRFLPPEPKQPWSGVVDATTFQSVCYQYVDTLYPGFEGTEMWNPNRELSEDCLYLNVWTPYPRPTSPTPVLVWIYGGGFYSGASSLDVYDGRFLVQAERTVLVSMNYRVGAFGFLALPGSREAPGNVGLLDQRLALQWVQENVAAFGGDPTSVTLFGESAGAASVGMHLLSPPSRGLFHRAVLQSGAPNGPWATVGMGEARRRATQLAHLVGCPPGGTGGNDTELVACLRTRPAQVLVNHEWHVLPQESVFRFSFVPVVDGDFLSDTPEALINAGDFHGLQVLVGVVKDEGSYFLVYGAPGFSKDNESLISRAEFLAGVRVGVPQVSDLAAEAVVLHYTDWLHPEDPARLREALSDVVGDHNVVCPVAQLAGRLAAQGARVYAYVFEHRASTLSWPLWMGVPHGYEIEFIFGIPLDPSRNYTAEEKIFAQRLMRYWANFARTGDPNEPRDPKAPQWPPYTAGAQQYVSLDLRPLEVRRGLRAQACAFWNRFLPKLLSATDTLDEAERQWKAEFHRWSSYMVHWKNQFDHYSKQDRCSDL
T1 sequence (P22303 whole entry): as the sequence (P22303 whole entry, looked up) above

By IC50 is commonly meant the concentration needed to halve the response being measured. The inhibition is the drop in the measured response relative to a control, in per cent. Consider `CNC(=O)Oc1cccc(CN(C)CCCOc2ccc3c(c2)O/C(=C\c2cc(OC)c(OC)c(OC)c2)C3=O)c1`, for which the values for the half-inhibitory concentration (IC50) against Cholinesterase and on Acetylcholinesterase [1] were 155 nM and 2.99 nM, respectively. The molecule further came in with an inhibition against Acetylcholinesterase [2] of 29.2%. The Ratio in test [3] is 51.8.

As for `CNC(=O)Oc1cccc(CN(C)CCCCCCCOc2ccc3c(c2)O/C(=C\c2cccc4ccccc24)C3=O)c1`, the IC50 on Cholinesterase turned out to be 40.2 nM; on Acetylcholinesterase [1] it was 2.76 nM. This molecule also yielded an inhibition against Acetylcholinesterase [2] of 66.7%. Further, the Ratio in test [3] stood at 14.5.

`CNC(=O)Oc1cccc(CN(C)CCCCCCCOc2ccc3c(c2)OC/C(=C\c2cc(OC)c(OC)c(OC)c2)C3=O)c1`: the IC50 against Cholinesterase was 153 nM; on Acetylcholinesterase [1] it was 9.81 nM. In addition, the inhibition against Acetylcholinesterase [2] was determined as 45.3%. In addition, the Ratio in test [3] was 15.6.

On to `CNC(=O)Oc1cccc(CN(C)CCCCCCCOc2ccc3c(c2)O/C(=C\c2ccc(Cl)c(Cl)c2)C3=O)c1`, for which the IC50 at Cholinesterase was 94.6 nM; at Acetylcholinesterase [1], 8 nM. For the same molecule, the inhibition against Acetylcholinesterase [2] came to 49.1%. In test [3], the Ratio turned out to be 11.8.

In turn, `CN(CCCCCCCOc1ccc2c(c1)O/C(=C\c1cccc3ccccc13)C2=O)Cc1cccc(O)c1` gave an inhibition against Acetylcholinesterase [2] of 49.5%. For the same molecule, the Ratio in test [3] is 0.09.

Take `CNC(=O)Oc1cccc(CN(C)CCCCCCCOc2ccc3c(c2)O/C(=C\c2c4ccccc4cc4ccccc24)C3=O)c1`: the IC50 was found to be 761 nM against Cholinesterase and 79.1 nM at Acetylcholinesterase [1]. This molecule also had an inhibition on Acetylcholinesterase [2] of 65.3%. Besides, the Ratio in test [3] was 9.6.

At Cholinesterase, `CNC(=O)Oc1cccc(CN(C)CCCCCCCOc2ccc3c(c2)OCC3=O)c1` gave an IC50 of 11400 nM. Also, on Acetylcholinesterase [2], the inhibition is 17.5%. In addition, the Ratio in test [3] was 7.08.

As for `CNC(=O)Oc1cccc(CN(C)CCCOc2ccc3c(=O)c4ccccc4oc3c2)c1`, on Acetylcholinesterase [2], the inhibition was < 10%.

With `CNC(=O)Oc1cccc(CN(C)CCCCCCCOc2ccc3c(c2)O/C(=C\c2ccccc2)C3=O)c1`, the half-inhibitory concentration (IC50) against Cholinesterase came out at 57.9 nM; at Acetylcholinesterase [1] it was 1.95 nM. This molecule also showed an inhibition against Acetylcholinesterase [2] of 43.3%. For the same molecule, the Ratio in test [3] was found to be 29.7.

With `CNC(=O)Oc1cccc(CN(C)CCCCCCCOc2ccc3c(c2)O/C(=C\c2cc(OC)c(OC)c(OC)c2)C3=O)c1`, the IC50 is 136 nM at Cholinesterase and 0.52 nM at Acetylcholinesterase [1]. At Acetylcholinesterase [2], this molecule showed an inhibition of 41%. In addition, in test [3], the Ratio is 261.

On to `CNC(=O)Oc1cccc(CN(C)CCCCCCCOc2ccc3c(c2)CC/C(=C\c2cc(OC)c(OC)c(OC)c2)C3=O)c1`, for which the IC50 at Cholinesterase is 84.4 nM; at Acetylcholinesterase [1] it was 4.94 nM. Moreover, the inhibition against Acetylcholinesterase [2] turned out to be 33.3%. In addition, the Ratio in test [3] came out at 17.1.

On to `CNC(=O)Oc1cccc(CN(C)CCCCCCCOc2ccc3c(c2)O/C(=C\c2cc(Cl)cc(Cl)c2)C3=O)c1`, for which the figures for the IC50 against Cholinesterase and on Acetylcholinesterase [1] were 130 nM and 44.6 nM, respectively. For the same molecule, the inhibition against Acetylcholinesterase [2] was found to be 47.6%. Besides, the Ratio in test [3] is 2.91.

For the molecule `CNC(=O)Oc1ccc2c(c1)[C@]1(C)CCN(C)[C@@H]1N2C`, the inhibition at Acetylcholinesterase [2] came to 30%.

For `CNC(=O)Oc1cccc(CN(C)CCCOc2ccc3c(c2)O/C(=C\c2ccc4ccccc4c2)C3=O)c1`, the IC50 against Cholinesterase stood at 70.3 nM; at Acetylcholinesterase [1], 3.41 nM. Moreover, the inhibition on Acetylcholinesterase [2] was 35%. In addition, in test [3], the Ratio was found to be 20.6.

Take `CNC(=O)Oc1cccc(CN(C)CCCOc2ccc3c(c2)O/C(=C\c2cccc4ccccc24)C3=O)c1`: the half-inhibitory concentration (IC50) against Cholinesterase came out at 44.3 nM; on Acetylcholinesterase [1] it was 6.86 nM. Further, the inhibition against Acetylcholinesterase [2] is 37.2%. Moreover, in test [3], the Ratio was determined as 6.45.

As for `CNC(=O)Oc1cccc(CN(C)CCCCCCCOc2ccc3c(c2)C/C(=C\c2cc(OC)c(OC)c(OC)c2)C3=O)c1`, the figures for the IC50 on Cholinesterase and on Acetylcholinesterase [1] were 81.3 nM and 1.8 nM, respectively. This molecule showed an inhibition at Acetylcholinesterase [2] of 32.8%. Further, in test [3], the Ratio came to 45.2.

Consider `CNC(=O)Oc1cccc(CN(C)CCCCCCCOc2ccc3c(=O)c4ccccc4oc3c2)c1`, for which the inhibition on Acetylcholinesterase [2] is < 10%. In test [3], the Ratio stood at 51.6.
